Laboratory results as given in PubChem BioAssay AID252 (DTP/NCI, 2004).
Values joined by “and” are separate entries in the source; they are usually repeats but may differ in a detail not shown here. Equal entries are not always repeated. Toxic doses and inconclusive results are not listed.

System: BDF1 mice, intracerebral L1210 leukemia, survival T/C
Assay: NCI In Vivo Anticancer Drug Screen. Data for tumor model L1210 Leukemia (intracerebral) in B6D2F1 (BDF1) mice
Conditions: higher = longer survival
In short: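 Transplantable tumour-bearing mice, compound-treated vs vehicle controls; read-out survival, reported as T/C ratio.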

`COc1ccc(NC(=O)N(CCCl)N=O)cc1` was tested, and the T/C (endpoint: mean survival time, dose: 4.4 mg/kg/injection, schedule: Q01DX015 (ip), vehicle: saline) was 105 % of control, the T/C (endpoint: mean survival time, dose: 6.6 mg/kg/injection, schedule: Q01DX015 (ip), vehicle: saline) was 113 % of control and the T/C (endpoint: mean survival time, dose: 9.9 mg/kg/injection, schedule: Q01DX001 (ip), vehicle: carboxymethylcellulose (CMC)) was 104 % of control. For the same molecule, the T/C (endpoint: mean survival time, dose: 10.0 mg/kg/injection, schedule: Q01DX015 (ip), vehicle: saline) was 113 % of control, the T/C (endpoint: mean survival time, dose: 15.0 mg/kg/injection, schedule: Q01DX001 (ip), vehicle: saline) was 102 % of control and the T/C (endpoint: mean survival time, dose: 15.0 mg/kg/injection, schedule: Q01DX015 (ip), vehicle: saline) was 124 % of control. For the same molecule, the T/C (endpoint: mean survival time, dose: 19.8 mg/kg/injection, schedule: Q01DX001 (ip), vehicle: carboxymethylcellulose (CMC)) was 108 % of control, the T/C (endpoint: mean survival time, dose: 22.0 mg/kg/injection, schedule: Q01DX015 (ip), vehicle: saline) was 104 % of control and the T/C (endpoint: mean survival time, dose: 30.0 mg/kg/injection, schedule: Q01DX001 (ip), vehicle: saline) was 105 % of control. The T/C (endpoint: mean survival time, dose: 39.6 mg/kg/injection, schedule: Q01DX001 (ip), vehicle: carboxymethylcellulose (CMC)) was 102 % of control, the T/C (endpoint: mean survival time, dose: 60.0 mg/kg/injection, schedule: Q01DX001 (ip), vehicle: saline) was 108 % of control and the T/C (endpoint: mean survival time, dose: 120.0 mg/kg/injection, schedule: Q01DX001 (ip), vehicle: saline) was 113 % of control. The T/C (endpoint: mean survival time, dose: 240.0 mg/kg/injection, schedule: Q01DX001 (ip), vehicle: saline) was 111 % of control.

In the case of `O=NN(CCCl)C(=O)NC1CC2CCC1C2` (stereo unspecified), the T/C (endpoint: mean survival time, dose: 14.5 mg/kg/injection, schedule: Q01DX001 (ip), vehicle: other) is reported as 124 % of control, the T/C (endpoint: mean survival time, dose: 26.0 mg/kg/injection, schedule: Q01DX001 (ip), vehicle: carboxymethylcellulose (CMC)) is reported as 196 % of control and the T/C (endpoint: mean survival time, dose: 29.25 mg/kg/injection, schedule: Q01DX001 (oral), vehicle: other) is reported as 162 % of control and 176 % of control and 191 % of control. The T/C (endpoint: mean survival time, dose: 39.0 mg/kg/injection, schedule: Q01DX001 (ip), vehicle: other) was 236 % of control, the T/C (endpoint: mean survival time, dose: 41.0 mg/kg/injection, schedule: Q01DX001 (ip), vehicle: carboxymethylcellulose (CMC)) was 247 % of control and 265 % of control and the T/C (endpoint: mean survival time, dose: 58.5 mg/kg/injection, schedule: Q01DX001 (oral), vehicle: other) was 306 % of control and 356 % of control and 442 % of control. For the same molecule, the T/C (endpoint: mean survival time, dose: 62.0 mg/kg/injection, schedule: Q01DX001 (ip), vehicle: carboxymethylcellulose (CMC)) was 303 % of control and 306 % of control, the T/C (endpoint: mean survival time, dose: 87.0 mg/kg/injection, schedule: Q01DX001 (ip), vehicle: other) was 151 % of control and the T/C (endpoint: mean survival time, dose: 93.0 mg/kg/injection, schedule: Q01DX001 (ip), vehicle: carboxymethylcellulose (CMC)) was 188 % of control and 268 % of control. For the same molecule, the T/C (endpoint: mean survival time, dose: 117.0 mg/kg/injection, schedule: Q01DX001 (oral), vehicle: other) was 111 % of control and 154 % of control and 294 % of control and the T/C (endpoint: mean survival time, dose: 139.0 mg/kg/injection, schedule: Q01DX001 (ip), vehicle: carboxymethylcellulose (CMC)) was 105 % of control and 101 % of control.

`CCOC(N)=O` was tested, and the T/C (endpoint: mean survival time, dose: 1074.0 mg/kg/injection, schedule: Q01DX001 (ip), vehicle: saline) was 104 % of control and the T/C (endpoint: mean survival time, dose: 1601.0 mg/kg/injection, schedule: Q01DX001 (ip), vehicle: saline) was 106 % of control.

`CSCS(=O)C[C@H](CO)NC(=O)/C=C/c1c(C)[nH]c(=O)[nH]c1=O` (stereo partly specified) was tested, and the T/C (endpoint: mean survival time, dose: 1.1 mg/kg/injection, schedule: Q01DX001 (ip), vehicle: carboxymethylcellulose (CMC)) was 95 % of control, the T/C (endpoint: mean survival time, dose: 1.7 mg/kg/injection, schedule: Q01DX001 (ip), vehicle: carboxymethylcellulose (CMC)) was 101 % of control and the T/C (endpoint: mean survival time, dose: 2.6 mg/kg/injection, schedule: Q01DX001 (ip), vehicle: carboxymethylcellulose (CMC)) was 98 % of control.

In the case of `O=c1[nH]cc(F)c(=O)[nH]1`, the T/C (endpoint: mean survival time, dose: 12.76 mg/kg/injection, schedule: Q01DX015 (ip), vehicle: carboxymethylcellulose (CMC)) is reported as 100 % of control, the T/C (endpoint: mean survival time, dose: 19.43 mg/kg/injection, schedule: Q01DX015 (ip), vehicle: carboxymethylcellulose (CMC)) is reported as 111 % of control and the T/C (endpoint: mean survival time, dose: 29.0 mg/kg/injection, schedule: Q01DX015 (ip), vehicle: carboxymethylcellulose (CMC)) is reported as 113 % of control. The T/C (endpoint: mean survival time, dose: 79.5 mg/kg/injection, schedule: Q01DX001 (ip), vehicle: carboxymethylcellulose (CMC)) was 112 % of control, the T/C (endpoint: median survival time, dose: 8.4 mg/kg/injection, schedule: Q01DX009 (ip), vehicle: saline) was 105 % of control and the T/C (endpoint: median survival time, dose: 14.0 mg/kg/injection, schedule: Q01DX009 (ip), vehicle: saline) was 108 % of control. The T/C (endpoint: median survival time, dose: 23.0 mg/kg/injection, schedule: Q04DX003 (ip), vehicle: saline) was 108 % of control, the T/C (endpoint: median survival time, dose: 39.0 mg/kg/injection, schedule: Q01DX009 (ip), vehicle: saline) was 107 % of control and the T/C (endpoint: median survival time, dose: 39.0 mg/kg/injection, schedule: Q04DX003 (ip), vehicle: saline) was 118 % of control. For the same molecule, the T/C (endpoint: median survival time, dose: 65.0 mg/kg/injection, schedule: Q01DX009 (ip), vehicle: saline) was 96 % of control, the T/C (endpoint: median survival time, dose: 108.0 mg/kg/injection, schedule: Q04DX003 (ip), vehicle: saline) was 156 % of control and the T/C (endpoint: median survival time, dose: 180.0 mg/kg/injection, schedule: Q04DX003 (ip), vehicle: saline) was 99 % of control.

With `C[C@@H]1C[C@@H]([C@H](O)CC2CC(=O)NC(=O)C2)C(=O)[C@@H](C)C1` the T/C (endpoint: mean survival time, dose: 16.0 mg/kg/injection, schedule: Q01DX015 (ip), vehicle: saline) was 121 % of control, the T/C (endpoint: mean survival time, dose: 24.0 mg/kg/injection, schedule: Q01DX015 (ip), vehicle: saline) was 120 % of control and the T/C (endpoint: mean survival time, dose: 36.0 mg/kg/injection, schedule: Q01DX015 (ip), vehicle: saline) was 116 % of control. For the same molecule, the T/C (endpoint: mean survival time, dose: 44.0 mg/kg/injection, schedule: Q01DX001 (ip), vehicle: saline) was 98 % of control, the T/C (endpoint: mean survival time, dose: 67.0 mg/kg/injection, schedule: Q01DX001 (ip), vehicle: saline) was 104 % of control and the T/C (endpoint: mean survival time, dose: 100.0 mg/kg/injection, schedule: Q01DX001 (ip), vehicle: saline) was 103 % of control.

In the case of `O=C1C=C(N2CC2)C(=O)C(N2CC2)=C1N1CC1`, the T/C (endpoint: mean survival time, dose: 0.01 mg/kg/injection, schedule: Q01DX009 (ip), vehicle: saline) is reported as 94 % of control, the T/C (endpoint: mean survival time, dose: 0.02 mg/kg/injection, schedule: Q01DX009 (ip), vehicle: saline) is reported as 100 % of control and the T/C (endpoint: mean survival time, dose: 0.05 mg/kg/injection, schedule: Q01DX009 (ip), vehicle: saline) is reported as 116 % of control.

`CCNC1=C(N2CC2)C(=O)C(NCC)=C(N2CC2)C1=O` was tested, and the T/C (endpoint: mean survival time, dose: 0.37 mg/kg/injection, schedule: Q01DX009 (ip), vehicle: saline) was 101 % of control and 100 % of control, the T/C (endpoint: mean survival time, dose: 0.75 mg/kg/injection, schedule: Q01DX009 (ip), vehicle: saline) was 104 % of control and 117 % of control and the T/C (endpoint: mean survival time, dose: 1.5 mg/kg/injection, schedule: Q01DX009 (ip), vehicle: saline) was 124 % of control.

In the case of `O=NN(CCCl)C(=O)NC1CCSc2ccccc21` (stereo unspecified), the T/C (endpoint: mean survival time, dose: 26.0 mg/kg/injection, schedule: Q01DX001 (ip), vehicle: other) is reported as 164 % of control, the T/C (endpoint: mean survival time, dose: 27.0 mg/kg/injection, schedule: Q01DX001 (ip), vehicle: other) is reported as 206 % of control and the T/C (endpoint: mean survival time, dose: 40.0 mg/kg/injection, schedule: Q01DX001 (ip), vehicle: other) is reported as 201 % of control and 261 % of control. The T/C (endpoint: mean survival time, dose: 60.0 mg/kg/injection, schedule: Q01DX001 (ip), vehicle: other) was 263 % of control and 288 % of control, the T/C (endpoint: mean survival time, dose: 90.0 mg/kg/injection, schedule: Q01DX001 (ip), vehicle: other) was 161 % of control and 222 % of control and the T/C (endpoint: mean survival time, dose: 135.0 mg/kg/injection, schedule: Q01DX001 (ip), vehicle: other) was 230 % of control.

With `CN1CCN(CCCN2c3ccccc3Sc3ccc(Cl)cc32)CC1` the T/C (endpoint: mean survival time, dose: 16.6 mg/kg/injection, schedule: Q01DX009 (ip), vehicle: saline) was 108 % of control and the T/C (endpoint: mean survival time, dose: 25.0 mg/kg/injection, schedule: Q01DX009 (ip), vehicle: saline) was 103 % of control.
